Test results: patent US20050256051A1, “Nuclear receptor-mediated introduction of a PNA into cell nuclei” (The Population Council, Inc., priority 2001, published 2005)

What was measured:
c-myc gene [1] = experiment: MYC protein by Western blot normalized to H2b, DU145 cells; format: cell-based, human; details: 10 μM
Procedure: (§1) Total cellular proteins samples were derived from 10^7 cells solubilized in 200 μl Urea lysis buffer (9M Urea, 50 mM Tris, pH 7.0) with brief sonication at 0° C. as needed. Western blot analysis for MYC expression was performed as described previously (29). Briefly, total cellular proteins were electrophoretically separated using 10% acrylamide, 0.4% (w/v) SDS gels and then transferred to a nitrocellulose membrane (Hybond C-extra, Amersham). The membrane was then cut at a […] molecular weight level (using as reference Kaleidoscope pre-stained standards, BioRad). Both membrane halves were incubated in parallel overnight with a primary antibody (top with anti-myc antibody, 9E10 Calbiochem, San Diego, Calif.; bottom with anti-H2b antibody kindly provided by Dr. M. Romani, IST, Genova, I). The membranes were washed and exposed to a rabbit anti-mouse IgG (Dakopatts, Glostrup, DK) at room temperature for 1 h. MYC and H2b bands were visualized by the incubation of the membrane with alkaline phosphatase-conjugated goat anti-rabbit IgG (Sigma) at room temperature for 2 h followed by exposure to the 5-bromo-4-chloro-3-indolylphosphate/nitro blue tetrazolium substrate developer (BCIP/NBT, Sigma).
(§2) The stained and reassembled Western blot images, from triplicate experiments, were digitally acquired, elaborated in Photoshop, and then quantified using Scion-Image. MYC concentrations were normalized to the matching histone H2b concentrations (a protein that remains constant throughout the treatment described). Therefore MYC concentration is reported as a ratio to an H2b standard. For Western blot analyses, the average error was 14.0% (range 8.3 to 25.1%) in the LNCaP experiments and for those with DU145 averaged 10.2% (range 8.5 to 20.3%).
As shown in Fugure 4A, the amount of MYC protein was evaluated by Western blot analysis of total nuclear proteins. […]

DU145 cells [2] = experiment: Cell viability by Trypan blue exclusion, DU145 cells; format: cell-based, human; details: 10 μM, up to 72 h, compared with the about 20% decline seen in LNCaP
Procedure: (§3) Two prostatic carcinoma derived cell lines were used (LNCaP and DU145 cultured in RPMI-1640, 10% charcoal-stripped fetal calf serum). Their features and culture conditions were as previously detailed (26, 27). PNA stock solutions (500 μM in H2O neutralized with NaOH) were added as an aliquot to the culture medium to their final concentration. […] In the gene regulation experiments, PNAmycwt, PNAmycwt-T, PNAmycmut-T, and PNAmycwt-NLS were present at a final 10 μM concentration in the culture medium, for 0, 24, 48, or 72 hours. Cell growth was measured by total cell counts from three replicate flasks (1.3-5.0×10^6 per each 75 cm^2/flask) while cell viability was determined by Trypan blue exclusion. The standard deviation was calculated both for cell growth and viability keeping into account the data from all the experiments (minimum of three each).
(§4) LNCaP and DU145 cells were treated with a 10 μM concentration of PNA constructs in the culture medium (PNA-mycwt-T (Δ), PNA-mycwt, PNA-mycmut, PNA-mycmut-T (●) as negative controls and PNA-mycwt-NLS (▪) as positive control). Cell numbers (FIGS. 3A and C) and viability (FIGS. 3B and D) were estimated, as described above, at increasing times of exposure to different PNA constructs.

LNCaP cells [3] = experiment: Cell growth by total cell counts, LNCaP cells; format: cell-based, human; details: 10 μM, 72 hours
Procedure: as §3, §4

LNCaP cells [4] = experiment: Cell viability by Trypan blue exclusion, LNCaP cells
Procedure: as §3, §4

DU145 cells [5] = experiment: Cell growth by total cell counts, DU145 cells; format: cell-based, human; details: 10 μM, 72 h
Procedure: as §3, §4

c-myc gene [6] = experiment: MYC protein by Western blot normalized to H2b, LNCaP cells; format: cell-based, human; details: for change in MYC: 2 μM, preliminary experiments
Procedure: as §1, §2
As shown in Fugure 4A, the amount of MYC protein was evaluated by Western blot analysis of […]. The effects of PNAs on expression of the c-myc gene in LNCaP and DU145 cells were also obtained by immunochemical measurement of the MYC protein content of cell lysates, using data obtained from at least a triplicate run of each set of immunostained Western blots. In each case, the MYC content of the whole cell lysate was compared to that of histone H2b, a protein that remains constant throughout the treatment described. The constancy of H2b made it possible to represent variations in MYC protein concentration normalized to the H2b content in the same lysate.

Burkitt's lymphoma cells = details: 10 μM in the cell medium; cited from earlier work
[7] = Solubility of PNA constructs in culture medium and stock solution; format: physicochemical; details: cell culture medium (RPMI complete medium); higher concentrations precipitate; read-out: maximum solubility in RPMI complete medium
Procedure: Table 1 contains a description of the experimental PNAs used in this study, including their modifications and corresponding abbreviations. In particular, PNA-mycwt is a 17-mer PNA anti-gene for the unique sequence of c-myc, bases 4528-4544, in its II exon (21). […] All the other PNAs listed in Table 1 had solubilities in excess of 500 μM (stock solution described above), far above the 10 μM concentration used in most experiments.

Question: Which “inhibition of MYC” value (c-myc gene [1]; 72 hours, linear inhibition) does the source give for “PNA-mycwt-NLS: c-myc anti-gene PNA (SEQ ID NO:1) linked to SV40 Nuclear Localization Signal peptide PKKKRKV; positive control (TCAACGTTAGCTTCACC; all peptide nucleic acid (PNA); further chemistry not fully specified) [reference compound]” here?
Answer: about 65%

Question: And the “effect on cell viability” value (DU145 cells [2])?
Answer: same magnitude and timing

Question: What about the cell growth (LNCaP cells [3]) of the same molecule?
Answer: 34 % of control

Question: What about the “decline in cell viability” value (LNCaP cells [4]; 10 µM) of the same molecule?
Answer: about 20%

Question: What about the “inhibition of cell growth” value (DU145 cells [5]) of the same molecule?
Answer: 36%

Question: And the “decrease in MYC content” value (c-myc gene [6]; 10 μM, 72 h, linear decrease)?
Answer: 52%

Question: And the cell viability (Burkitt's lymphoma cells)?
Answer: small decrease

Question: What about the “inhibition of MYC expression” value (Burkitt's lymphoma cells) of the same molecule?
Answer: maximum inhibition

Question: With `CCN(CC)c1ccc2c(-c3ccccc3C(=O)NCCCC[C@H](NC(=O)COCCOCCNC(=O)CN(CCNC(=O)CN(CCNC(=O)CN(CCNC(=O)CN(CCNC(=O)CN(CCNC(=O)CN(CCNC(=O)CN(CCNC(=O)CN(CCNC(=O)CN(CCNC(=O)CN(CCNC(=O)CN(CCNC(=O)CN(CCNC(=O)CN(CCNC(=O)CN(CCNC(=O)CN(CCNC(=O)CN(CCNC(=O)CN(CCN)C(=O)Cn3cc(C)c(=O)[nH]c3=O)C(=O)Cn3ccc(N)nc3=O)C(=O)Cn3cnc4c(N)ncnc43)C(=O)Cn3cnc4c(N)ncnc43)C(=O)Cn3ccc(N)nc3=O)C(=O)Cn3cnc4c(=O)[nH]c(N)nc43)C(=O)Cn3cc(C)c(=O)[nH]c3=O)C(=O)Cn3cc(C)c(=O)[nH]c3=O)C(=O)Cn3cnc4c(N)ncnc43)C(=O)Cn3cnc4c(=O)[nH]c(N)nc43)C(=O)Cn3ccc(N)nc3=O)C(=O)Cn3cc(C)c(=O)[nH]c3=O)C(=O)Cn3cc(C)c(=O)[nH]c3=O)C(=O)Cn3ccc(N)nc3=O)C(=O)Cn3cnc4c(N)ncnc43)C(=O)Cn3ccc(N)nc3=O)C(=O)Cn3ccc(N)nc3=O)C(=O)NCC(N)=O)c3ccc(=[N+](CC)CC)cc-3oc2c1` [PNA-mycwt-R] as the molecule, how does the solubility [7] read?
Answer: 2 µM

Question: For `CCN(CC)c1ccc2c(-c3ccccc3C(=O)NCCCC[C@H](NC(=O)COCCOCCNC(=O)CN(CCNC(=O)CN(CCNC(=O)CN(CCNC(=O)CN(CCNC(=O)CN(CCNC(=O)CN(CCNC(=O)CN(CCNC(=O)CN(CCNC(=O)CN(CCNC(=O)CN(CCNC(=O)CN(CCNC(=O)CN(CCNC(=O)CN(CCNC(=O)CN(CCNC(=O)CN(CCNC(=O)CN(CCNC(=O)CN(CCNC(=O)COCCOCCNC(=O)CCC(=O)O[C@H]3CC[C@H]4[C@@H]5CC[C@H]6CC(=O)CC[C@]6(C)[C@H]5CC[C@]34C)C(=O)Cn3cc(C)c(=O)[nH]c3=O)C(=O)Cn3ccc(N)nc3=O)C(=O)Cn3cnc4c(N)ncnc43)C(=O)Cn3cnc4c(N)ncnc43)C(=O)Cn3ccc(N)nc3=O)C(=O)Cn3cnc4c(=O)[nH]c(N)nc43)C(=O)Cn3cc(C)c(=O)[nH]c3=O)C(=O)Cn3cc(C)c(=O)[nH]c3=O)C(=O)Cn3cnc4c(N)ncnc43)C(=O)Cn3cnc4c(=O)[nH]c(N)nc43)C(=O)Cn3ccc(N)nc3=O)C(=O)Cn3cc(C)c(=O)[nH]c3=O)C(=O)Cn3cc(C)c(=O)[nH]c3=O)C(=O)Cn3ccc(N)nc3=O)C(=O)Cn3cnc4c(N)ncnc43)C(=O)Cn3ccc(N)nc3=O)C(=O)Cn3ccc(N)nc3=O)C(=O)NCC(N)=O)c3ccc(=[N+](CC)CC)cc-3oc2c1` [PNA-mycwt-TR], which solubility [7] is on record?
Answer: 2 µM

Question: What about the “change in MYC” value (c-myc gene [6]; 24 hours) of the same molecule?
Answer: −20%

Question: And the “change in MYC” value (c-myc gene [6]; 48 h)?
Answer: −30%

Question: What about the “change in MYC” value (c-myc gene [6]; 72 h) of the same molecule?
Answer: −30%

Question: With “PNA-mycwt-T: c-myc anti-gene PNA (SEQ ID NO:1) linked to dihydrotestosterone at N-terminal (TCAACGTTAGCTTCACC; all peptide nucleic acid (PNA); dihydrotestosterone conjugated at PNA N-terminus)” as the molecule, how does the “effect on MYC protein / expression” value (c-myc gene [1]) read?
Answer: unaltered

Question: What about the cell growth (LNCaP cells [3]) of the same molecule?
Answer: 34 % of control

Question: And the “decline in cell viability” value (LNCaP cells [4]; LNCaP cells, 10 μM, 72 h)?
Answer: about 20%

Question: What about the “effect on MYC protein / expression” value (c-myc gene [6]; 10 μM) of the same molecule?
Answer: significant and persistent decrease

Question: What about the “change in MYC content” value (c-myc gene [6]; 10 μM, 24 h) of the same molecule?
Answer: −63%

Question: And the “change in MYC content” value (c-myc gene [6]; 10 μM, 48 hours)?
Answer: −50%

Question: And the “change in MYC content” value (c-myc gene [6]; 10 μM, 72 hours)?
Answer: −42%

Question: With “PNA-mycwt: 17-mer c-myc anti-gene PNA, TCA ACG TTA GCT TCA CC (SEQ ID NO:1), vector-free (TCAACGTTAGCTTCACC; all peptide nucleic acid (PNA); further chemistry not fully specified)” as the molecule, how does the “effect on MYC protein / expression” value (c-myc gene [1]) read?
Answer: unaltered

Question: And the “effect on MYC protein / expression” value (c-myc gene [6]; 10 μM)?
Answer: unchanged
